Measurements: patent US20210186860A1, “Improved Delivery Systems for Moieties Including CBD Enhanced Combinations, Formulations and Chimeras” (LIFE TECH GLOBAL, LLC, priority 2017, published 2021)

Experiment: Transdermal flux / transdermal delivery from patch
Format: in vitro ADME
Conditions: enhancer at 3% in PIB adhesive

Row | Structure (SMILES) | transdermal delivery from PIB
1 | CCCCCCCC/C=C\CCCCCCCC(=O)O [oleic acid] | double
2 | CCCCCCCCCCCCN1CCCCCC1=O [Azon] | double
